{"source": "patent US20250011404A1", "about": "“TARGETING APOE ENHANCES T-CELL KILLING IN CANCER IMMUNOTHERAPY” (Children's National Medical Center, priority 2021, published 2025)", "key": {"activated mouse T cells": {"system": "activated mouse T cells", "assay": "Viability of CD3/CD28-activated T cells, flow cytometry with Sytox Red dead cell stain", "format": "cell-based", "details": "T cells activated with CD3/CD28 dynabeads; COG133 0, 3, 9, 15 and 30 μM; 48 hr", "experimental": "FIG. 14A: T cells isolated from naïve mouse spleens were cultured in RPMI media, WT B16 conditioned media and apoE^−/− B16 conditioned media for 48 hr and the media was analyzed with ProcartaPlex multiplex immunoassay. […] Remarkably, these effects were reversed by incubating T-cells with conditioned media from apoE^−/− cells, similar to T-cells activated in control RPMI media alone. Results are expressed as mean score±SD. *p<0.05; **p<0.005; ***p<0.001, determined by unpaired two-tailed Student's t-test. FIG. 14B: The effect of apoE agonist peptide COG133 on the viability of activated mouse T cells was tested by culturing the cells in the presence of the indicated concentrations of peptide for 48 hr and cell death was quantified with flow cytometry using the APC-conjugated Sytox Red dead cell stain. […] The number in Quadrant 2 is the percentage of dead cells.\nT cells were activated with CD3/CD28 dynabeads and the effects of COG133 (0, 3, 9, 15 and 30 μM concentrations) on T cell apoptosis were evaluated.\nSpleens were collected from mice euthanized by C02 narcosis and cervical dislocation. Spleens were pulverized through a 40-μm mesh cell strainer and treated with ACK lysing buffer (Thermo Fisher) for 10 seconds to remove erythrocytes. […]"}, "[1]": {"system": "vaccinated splenocytes from lrp8−/− mice", "assay": "Cytokine production of vaccinated splenocytes from lrp8−/− mice co-cultured with immunogenic B16 cells (ELISA, multiplex)", "format": "cell-based, mouse", "description": "To functionally define the role of the lrp8 receptor engagement in apoE suppression, vaccinated splenocytes from lrp8^−/− mice were isolated. These cells were co-cultured with BET/JQ1 treated (Myc-suppressed) immunogenic B16 cells for 48 hr with or without exposure to the apoE mimetic COG133. […] In addition, using ProcartaPlex multiplex immunoassay, we also quantified other cytokines/chemokines produced in the reaction. […] These included effector function: IFNγ; stimulator function, IL18, GM-CSF, G-CSF; inflammatory cytokines: IL2, IL3, IL4, IL5, IL9, IL13, IL23, IL12p70; chemo attractant factors: MCP-1, MCP3, MIP-1α, CCL-5 (Rantes); and regulatory factors: IL6, IL-10 (P<0.05). […] Cell culture supernatant was collected after centrifuge at 1,200 rpm for 10 min at 4° C. The concentrations of the following immune molecules were determined using the mouse Cytokine & Chemokine 36-plex ProcartaPlex Panel, a magnetic bead-based multiplex immunoassay (Thermo Scientific) following our previous protocol(19). Briefly, cell culture supernatant samples were mixed with antibody-linked polystyrene beads on a 96-well plate and incubated at room temperature (RT) for 2 h on an orbital shaker at 500 rpm. After washing, plates were incubated with biotinylated detection antibody for 30 min at RT. Plates were then washed twice and then labeled beads were resuspended in streptavidin-PE. Each sample was measured in duplicate along with standards (8-point dilutions) and the buffer control. Plates were read using a Luminex Bio-plex 200 system (Bio-Rad Corp.) for quantitative analysis. WT and apoE^−/− mice or WT and lrp8^−/− mice, were inoculated with either WT B16 or apoE^−/− B16 cells, with anti-CTLA4 antibody on day 0. These vaccinated splenocytes (VS) were harvested on day 7 and co-cultured with either WT B16 or apoE^−/− B16 cells for 48 hr, following which IFNγ levels in media were compared with ELISA assay. […] Readings were measured at 450 nm using the EnSpire 2300 Multilabel plate reader (Perkin Elmer, Waltham, Massachusetts, US)."}}, "note": "“Also recorded” adds a separate entry of the source."}
{"substance": "COG133: a fragment of apoE peptide, which competes with the apoE holoprotein for binding the LDL receptors and acts as an apoE mimetic", "values": [{"measurement": "T cell viability", "setting": "activated mouse T cells", "value": "diminished in a dose dependent manner; also recorded: decreases in a dose dependent fashion"}, {"measurement": "detectable cytokines with pattern similar to IFNγ: inhibition in WT mice, reversed in lrp8−/− splenocytes", "setting": "[1]; ProcartaPlex multiplex, with or without COG133, 48 hr", "value": "Seventeen out of 27"}, {"measurement": "IFNγ production from lrp8−/− vaccinated splenocytes", "setting": "[1]; co-culture with BET/JQ1 treated B16 cells 48 hr, with COG133", "value": "inhibitory effect was lacking; also recorded: suppression did not occur"}, {"measurement": "IL-13, IL-4, IL22, IL18, MCP-1, RANTES and Gro-α, lrp8−/− vaccinated splenocytes", "setting": "[1]; co-culture with Myc-inhibited B16 cells 48 hr, multiplex immunoassay (FIG. 18)", "value": "suppressive effect is diminished"}]}
